Common to all, as to type: functional
For experiment [1], the system named is Listeria monocytogenes. As to the kind of experiment: Antibacterial activity against Listeria monocytogenes isolated from mastitic cow milk at 100 ug/ml after 24 hr by agar well diffusion method. The following applies: read-out: IZ.
For experiment [2], the system named is Aspergillus flavus. As to the kind of experiment: Antifungal activity against Aspergillus flavus at 100 ug/ml after 48 to 72 hr by agar well diffusion method. The following applies: read-out: IZ. (In agar diffusion tests the substance spreads into inoculated agar from a disc or well.)
Experiment [3] relates to Salmonella typhimurium. As to the kind of experiment: Antibacterial activity against Salmonella enterica subsp. enterica serovar Typhimurium isolated from mastitic cow milk at 100 ug/ml after 24 hr by agar well diffusion method. As to conditions: read-out: IZ.
Experiment [4] deals with Escherichia coli. As to the kind of experiment: Antibacterial activity against Escherichia coli O157:H7 isolated from poultry at 100 ug/ml after 24 hr by agar well diffusion method. The following applies: O157:H7, 24 h, read-out: IZ.
For experiment [5], the system named is Candida albicans. As to the kind of experiment: Antifungal activity against Candida albicans at 100 ug/ml after 48 to 72 hr by agar well diffusion method. The following applies: read-out: IZ.
Experiment [6] relates to Bacillus cereus. As to the kind of experiment: Antibacterial activity against Bacillus cereus at 100 ug/ml after 24 hr by agar well diffusion method. As to conditions: read-out: IZ.
Experiment [7] deals with Staphylococcus aureus. As to the kind of experiment: Antibacterial activity against Staphylococcus aureus isolated from minced cow meet at 100 ug/ml after 24 hr by agar well diffusion method. The following applies: read-out: IZ.
Experiment [8] relates to Pseudomonas aeruginosa. As to the kind of experiment: Antibacterial activity against Pseudomonas aeruginosa minced cow meet at 100 ug/ml after 24 hr by agar well diffusion method. As to conditions: read-out: IZ.
Experiment [9] concerns Bacillus cereus. As to the kind of experiment: Antibacterial activity against Bacillus cereus at 10 ug/ml after 24 hr by agar well diffusion method. The following applies: read-out: IZ.
Experiment [10] has as its system Pseudomonas aeruginosa. As to the kind of experiment: Antibacterial activity against Pseudomonas aeruginosa minced cow meet at 10 ug/ml after 24 hr by agar well diffusion method. The following applies: read-out: IZ.
For experiment [11], the system named is Staphylococcus aureus. As to the kind of experiment: Antibacterial activity against Staphylococcus aureus minced cow meet at 10 ug/ml after 24 hr by agar well diffusion method. The following applies: read-out: IZ.
Experiment [12] has as its system Listeria monocytogenes. As to the kind of experiment: Antibacterial activity against Listeria monocytogenes isolated from mastitic cow milk at 10 ug/ml after 24 hr by agar well diffusion method. As to conditions: read-out: IZ.
Experiment [13] concerns Escherichia coli. As to the kind of experiment: Antibacterial activity against Escherichia coli O157:H7 isolated from poultry at 10 ug/ml after 24 hr by agar well diffusion method. The following applies: O157:H7, 24 h, read-out: IZ.
The test system of experiment [14] is Salmonella typhimurium. As to the kind of experiment: Antibacterial activity against Salmonella enterica subsp. enterica serovar Typhimurium isolated from mastitic cow milk at 10 ug/ml after 24 hr by agar well diffusion method. The following applies: read-out: IZ.
The test system of experiment [15] is Candida albicans. As to the kind of experiment: Antifungal activity against Candida albicans at 25 ug/ml after 48 to 72 hr by agar well diffusion method. The following applies: read-out: IZ.
The subject of experiment [16] is Aspergillus flavus. As to the kind of experiment: Antifungal activity against Aspergillus flavus at 25 ug/ml after 48 to 72 hr by agar well diffusion method. The following applies: read-out: IZ.

Take `Cc1nn(-c2ccccc2)c2nc(S)nc(-c3ccc(Cl)cc3)c12`: the zone of inhibition at 100 µg/mL in experiment [1] was determined as 24 mm; in experiment [2], 0 mm; in [3] it was 12 mm; in [4], 0 mm; in experiment [5], 29 mm; in experiment [6], 22 mm. The values for the zone of inhibition at 100 µg/mL in experiment [7] and in experiment [8] were 18 mm and 24 mm, respectively.
On to `Cc1nn(-c2ccccc2)c2c1c(-c1ccc(Cl)cc1)nc1nncn12`, for which the zone of inhibition at 100 µg/mL is 20 mm in [1]; 0 mm in experiment [2]; 13 mm in experiment [3]; 10 mm in experiment [4]; 18 mm in experiment [5]; 22 mm in experiment [6]. In addition, the zone of inhibition at 100 µg/mL in experiment [7] is 14 mm; in experiment [8] it was 12 mm.
On to `COc1ccc(C(=O)CSc2nc(-c3ccc(Cl)cc3)c3c(C)nn(-c4ccccc4)c3n2)cc1`, for which the zone of inhibition at 100 µg/mL came to 14 mm in experiment [1]; 12 mm in experiment [2]; 13 mm in experiment [3]; 16 mm in [4]; 26 mm in experiment [5]; 18 mm in experiment [6]. Further, the results for the zone of inhibition at 100 µg/mL in experiment [7] and in [8] were 16 mm and 18 mm, respectively.
Turning to `Cc1nn(-c2ccccc2)c2nc(-n3[nH]c(=O)c(C#N)c3-c3cccs3)nc(-c3ccc(Cl)cc3)c12`, the zone of inhibition at 100 µg/mL in [1] amounted to 32 mm; in experiment [2] it was 12 mm; in experiment [3], 10 mm; in experiment [4], 0 mm; in experiment [5], 20 mm; in experiment [6] it was 9 mm. Further, the zone of inhibition at 100 µg/mL in experiment [7] and in experiment [8] was 14 mm in each case.
Consider `Cc1nn(-c2ccccc2)c2nc(SCC(=O)Cl)nc(-c3ccc(Cl)cc3)c12`, for which the zone of inhibition at 100 µg/mL worked out at 29 mm in [1]; 9 mm in experiment [2]; 11 mm in experiment [3]; 9 mm in experiment [4]; 8 mm in experiment [5]; 10 mm in experiment [6]. Moreover, the zone of inhibition at 100 µg/mL worked out at 14 mm in experiment [7] and 22 mm in experiment [8].
For the compound `Cc1nn(-c2ccccc2)c2nc(S)nc(-c3cccs3)c12`, the zone of inhibition at 100 µg/mL turned out to be 16 mm in experiment [1]; 10 mm in experiment [2]; 14 mm in experiment [3]; 14 mm in [4]; 10 mm in [5]; 18 mm in experiment [6]. Also, the zone of inhibition at 100 µg/mL was found to be 14 mm in experiment [7] and 16 mm in experiment [8].
In the case of `Cc1nn(-c2ccccc2)c2nc(-n3[nH]c(=O)c(C#N)c3-c3ccc(Cl)cc3)nc(-c3ccc(Cl)cc3)c12`, the zone of inhibition at 100 µg/mL in experiment [1] was found to be 29 mm; in [2] it was 12 mm; in experiment [3] it was 9 mm; in experiment [4], 0 mm; in experiment [5], 24 mm; in experiment [6] it was 24 mm. Also, the zone of inhibition at 100 µg/mL in experiment [7] was found to be 0 mm; in experiment [8], 14 mm.
Take `Cc1nn(-c2ccccc2)c2nc(NN)nc(-c3ccc(Cl)cc3)c12`: the zone of inhibition at 100 µg/mL was 16 mm in experiment [1]; 0 mm in [2]; 13 mm in experiment [3]; 10 mm in [4]; 16 mm in experiment [5]; 26 mm in [6]. The zone of inhibition at 100 µg/mL in experiment [7] and in [8] was 16 mm each time.
As for `Cc1nn(-c2ccccc2)c2nc(-n3nc(N)c(C#N)c3-c3ccc(Cl)cc3)nc(-c3ccc(Cl)cc3)c12`, the zone of inhibition at 100 µg/mL in [1] was 18 mm; in [2], 0 mm; in [3] it was 9 mm; in experiment [4] it was 0 mm; in experiment [5] it was 9 mm; in [6], 12 mm. Besides, the zone of inhibition at 100 µg/mL is 12 mm in experiment [7] and 9 mm in experiment [8].
As to `NC[C@H]1O[C@H](O[C@H]2[C@H](O)[C@@H](O[C@H]3O[C@H](CO)[C@@H](O)[C@H](N)[C@H]3O)[C@H](N)C[C@@H]2N)[C@H](N)C[C@@H]1O` [TOBRAMYCIN], the zone of inhibition at 10 µg/mL in experiment [9] turned out to be 19 mm; in [10], 18 mm; in experiment [11] it was 19 mm; in experiment [12] it was 20 mm; in [13], 20 mm; in experiment [14] it was 18 mm.
Take `Cc1nn(-c2ccccc2)c2c1C(c1ccc(Cl)cc1)n1c(s/c(=C\c3ccc(C#N)cc3)c1=O)=N2` (stereo not drawn): the zone of inhibition at 100 µg/mL in experiment [1] is 20 mm; in experiment [2], 8 mm; in experiment [3], 15 mm; in experiment [4], 18 mm; in experiment [5], 9 mm; in [6] it was 22 mm. For the same compound, the zone of inhibition at 100 µg/mL worked out at 28 mm in [7] and 18 mm in experiment [8].
With `OC(Cn1cncn1)(Cn1cncn1)c1ccc(F)cc1F` [FLUCONAZOLE], the zone of inhibition at 25 µg/mL in [15] is 17 mm; in [16], 16 mm.

The values above are taken from ChEMBL document CHEMBL3045647, “Synthesis, anti-microbial evaluation, and molecular modeling of new pyrazolo[3,4-d]pyrimidine derivatives” (2012).
